Experimental findings from PMC5561102, “Fusion protein analysis reveals the precise regulation between Hsp70 and Hsp100 during protein disaggregation” (Scientific Reports, 2017) are described below.

Holding throughout (assay): UV difference spectrum after size exclusion chromatography
Common to all, as to settings: 3 mM ATP, 55 °C 60 min incubation, pH 7.5, 5 mM MgCl2; binding stoichiometry, not an affinity

In assay [1] the target is T1, TDnaK (Thermus thermophilus, UniProt Q56235, K69A).
T1 construct: gene dnaK; full length, untagged (plasmid pMDK6), expressed in E. coli; C-terminus Asp615

The target in assay [2] is T2, TDnaK (Thermus thermophilus, UniProt Q56235, T195A).
T2 construct: gene dnaK; full length, untagged (plasmid pMDK6), expressed in E. coli; C-terminus Asp615

For assay [3], the target named is T3, TDnaK (Thermus thermophilus, UniProt Q56235).
T3 construct: gene dnaK; full length, untagged (plasmid pMDK6), expressed in E. coli; C-terminus Asp615
T3 sequence (Q56235 whole entry): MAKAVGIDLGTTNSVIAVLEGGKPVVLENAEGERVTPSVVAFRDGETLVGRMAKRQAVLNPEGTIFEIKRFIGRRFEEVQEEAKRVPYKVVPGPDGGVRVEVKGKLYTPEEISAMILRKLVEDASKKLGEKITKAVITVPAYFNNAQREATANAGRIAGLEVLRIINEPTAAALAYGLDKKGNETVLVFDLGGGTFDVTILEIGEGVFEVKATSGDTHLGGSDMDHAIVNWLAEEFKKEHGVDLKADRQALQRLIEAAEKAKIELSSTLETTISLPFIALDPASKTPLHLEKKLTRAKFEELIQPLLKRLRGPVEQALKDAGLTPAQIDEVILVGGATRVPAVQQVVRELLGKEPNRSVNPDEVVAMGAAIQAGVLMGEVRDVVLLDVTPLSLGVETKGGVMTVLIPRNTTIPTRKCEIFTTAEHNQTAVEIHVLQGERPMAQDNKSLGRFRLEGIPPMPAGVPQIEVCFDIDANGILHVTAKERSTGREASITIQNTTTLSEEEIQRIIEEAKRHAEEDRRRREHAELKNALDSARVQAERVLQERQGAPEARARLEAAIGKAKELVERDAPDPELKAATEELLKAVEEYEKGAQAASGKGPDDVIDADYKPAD

T2 sequence (Q56235 whole entry T195A): as the sequence (Q56235 whole entry) above, with T195A counted along it
T1 sequence (Q56235 whole entry K69A): as the sequence (Q56235 whole entry) above, with K69A counted along it

Regarding `Nc1ncnc2c1ncn2[C@@H]1O[C@H](COP(=O)(O)OP(=O)(O)OP(=O)(O)O)[C@@H](O)[C@H]1O` [ATP], the “bound ATP per TDnaK” value at TDnaK [1] worked out at 0.89 mol/mol; at TDnaK [2], 0.64 mol/mol; at TDnaK [3] it was 0.70 mol/mol.
